{"source": "patent US20250387410A1", "about": "“TREATMENT OF ANTI-VEGF REFRACTORY OPHTHALMIC RETINAL EYE CONDITIONS” (Eye Co Pty Ltd., priority 2022, published 2025)", "key": {"MIO-M1 cells": {"test_system": "MIO-M1 cells", "assay": "MTT assay, cell viability of MIO-M1 cells", "type": "cell-based, human", "description": "(§1) The immortalised retinal cells used were as follows: MIO-M1 cells (Muller cell-derived; Müller 1 Moorefields, Institute of Ophthalmology, Dr A. Limb, Institute of Ophthalmology, University College, UK); ARPE19 (RPE-derived; ATCC CRL-2302, American Tissue Culture Collection, VA, USA); and 661W cells (photoreceptor-like derived; kindly gifted by Dr Muayyad R. Al-Ubaidi, Department of Cell Biology, University of Oklahoma Health Sciences Centre, Oklahoma City, OK, USA). Cells were authenticated and validated from Cell Bank Australia.\n(§2) The immortalised retinal cell lines MIO-M1, 661W and ARPE19 were used to undertake the MTT assay to assess cell metabolic activity, based on the cell's availability of NAPDH. Treatments included exposure to one of FA (10-0.01 μg/μl, provided by Professor Ben Boyd, Monash University, Australia), TA (10-0.01 μg/p, Honeywell, USA) and Dexamethasone (10-0.0001 μg/μl, Sigma-Aldrich, MO, USA). All corticosteroids used in vitro were dissolved in 20% dimethyl sulfoxide (DMSO) (Sigma-Aldrich, MO, USA) and ultrapure endotoxin 0.1M PBS (Thermo Fisher Scientific, MA, USA). At the 12-hour time point following addition of the corticosteroid, 10p of MTT reagent (Roche, Switzerland) was added to each well. To protect against light, plates were wrapped in foil and stored in the dark at 37° C. for 4 hours at 5.0% CO2. Cells were monitored using a bright field Zeiss Axiovert 200 inverted microscope (Carl Zeiss Meditec, Dublin, CA. USA) for formation of insoluble purple formazan precipitate crystals in viable cells. Subsequently 100p of MTT solubilisation solution was added and once again incubated in darkness at 37° C., 5.0% CO2 for 24 hours. Quantification of the MTT assay was performed by measuring the absorbance at 570 nm using Tecan Infinite® 200 PRO (Tecan, Mannedorf, Switzerland)."}, "661W cells": {"test_system": "661W cells", "assay": "MTT assay, cell viability of 661W cells", "type": "cell-based, human", "description": "as §1, §2"}, "[1]": {"test_system": "Ccl2, Il-6, Il-8 expression in MIO-M1 cells", "assay": "IL-1β stimulation of MIO-M1 cells, cytokine gene expression by QRT-PCR", "type": "cell-based, human", "conditions": "1 μg/μl steroid, 1 ng/μl IL-1β, 12 h, versus IL-1β alone", "description": "as §1\n(§3) IL-1β and TNF-α were administered to MIO-M1 cells to initiate an inflammatory response in order to test the anti-inflammatory properties of the selected corticosteroids. MIO-M1 cells were grown to a cell density of 50,000 cells per well in a 24 well plate using growth media and foetal bovine serum as described (Section 2.1.1). MIO-M1 cells were challenged with either 1 ng/μl of IL-1β or TNF-α (R&D Systems, MN, USA). Experimental wells were treated with either 1 μg/μl FA, TA or Dexamethasone. […]\n(§4) Following purification of RNA, cDNA was synthesized using the Bioline Tetro kit (Bioline, Australia) as per the manufacturer's instructions. Quantitative Real Time Polymerase Chain Reaction (QRT-PCR) was undertaken to profile gene expression changes in animal and cell culture samples. […] Data was analysed using the QuantStudio 12K Flex Software (Applied Biosystems, USA)."}, "[2]": {"test_system": "Ccl2, Il-6, Il-8 expression in MIO-M1 cells", "assay": "TNF-α stimulation of MIO-M1 cells, cytokine gene expression by QRT-PCR", "type": "cell-based, human", "conditions": "1 μg/μl steroid, 1 ng/μl TNF-α, 12 h, versus TNF alone", "description": "as §1, §3, §4"}, "[3]": {"test_system": "Il-1b-stimulated MIO-M1 cells", "assay": "Co-incubation with selective receptor antagonists in Il-1b-stimulated MIO-M1 cells", "type": "cell-based, human", "conditions": "stimulated Muller (MIO-M1) cells, receptor blockers", "protocol": "FIG. 3 Contribution of glucocorticoid and mineralocorticoid receptor signalling to the anti-inflammatory effect of FA in vitro.\nIL-1β and TNF-α were administered to MIO-M1 cells to initiate an inflammatory response in order to test the anti-inflammatory properties of the selected corticosteroids. MIO-M1 cells were grown to a cell density of 50,000 cells per well in a 24 well plate using growth media and foetal bovine serum as described (Section 2.1.1). MIO-M1 cells were challenged with either 1 ng/μl of IL-1β or TNF-α (R&D Systems, MN, USA). Experimental wells were treated with either 1 μg/μl FA, TA or Dexamethasone. Twelve hours post addition, growth medium was removed from each well and replaced with 860 μl of TRIzol (Thermo Fisher Scientific, MA, USA), agitated approximately 20 times and then placed in a clean 1.5 ml Eppendorf tube to extract ribonucleic acid (RNA).\nFollowing purification of RNA, cDNA was synthesized using the Bioline Tetro kit (Bioline, Australia) as per the manufacturer's instructions. Quantitative Real Time Polymerase Chain Reaction (QRT-PCR) was undertaken to profile gene expression changes in animal and cell culture samples. TaqMan hydrolysis probes (Applied Biosystems, USA) and Gene Expression Master Mix (Applied Biosystems, USA) were used. A clear 384 well plate (Applied Biosystems, USA) was used with each biological sample plated in duplicate. A reaction mixture per sample was set up and included 0.5 μl cDNA, 4 μl Rnase Free Water, 5 μl Gene Expression Master Mix and 0.5 μl Taqman Primer Probe (Thermo Fisher Scientific), as listed in Table 2.5. The amplification of each sample was undertaken using a QuantStudio 12K Flex QRT-PCR machine (Applied Biosystems, USA). GAPDH was used as the reference gene using the comparative cycle threshold (Ct) method (ΔΔCt), as it is known not to change expression following retinal photo-oxidative damage. Data was analysed using the QuantStudio 12K Flex Software (Applied Biosystems, USA)."}, "[4]": {"test_system": "C57BL/6J mice, photo-oxidative damage (PD)", "assay": "Photo-oxidative damage (PD) model of retinal degeneration, intravitreal injection", "type": "in vivo, mouse", "conditions": "for ONL thickness (OCT): 1-2 mm and 2-3 mm from the optic nerve, about 1 mg/ml in vitreous; for ONL thickness (OCT) / a-wave and b-wave ERG responses: versus controls; for a-wave and b-wave ERG responses: scotopic; for IBA1+ macrophages in the outer retina: versus control", "description": "All experiments conducted were in accordance with the ARVO Statement for Use of Animals in Ophthalmic and Vision Research, and with approval from the ANU Animal Experimentation Ethics Committee (AEEC, protocol #A2014/56). C57BL/6J mice aged 60 post-natal days were used in this study. Animals were born, reared and held under dim light conditions (5 lux) prior to photo-oxidative damage.\nIn vivo cross-sectional and fundus images of the mouse retina were acquired using Optical Coherence Tomography (OCT).\nIntravitreal injections were performed on C57BL/6J mice aged 60 post-natal days. Treatments included exposure to FA or TA dissolved in Suspension (comprised of 0.5% w/v carboxymethyl cellulose and 0.4% v/v Tween 80). The final concentration of drug in the vitreous chamber is estimated to be as 1 mg/ml.\nAge-matched C57BL/6J mice (60 post-natal days) were exposed to continuous 100K lux white LED light for 5 days with access to food and water ad libitum. During this time, 1% atropine sulphate (Minims 1% atropine sulphate eye drops; Bausch and Lomb, USA) was administered to both eyes twice daily to dilate the pupils. Animals were subsequently euthanised with carbon dioxide (CO2).\nElectroretinography (ERG) was used to assess the retinal function response of rodents to full-field flash stimuli under scotopic conditions. Dim-reared control and photo-oxidative damaged animals were used, using known methods.\nAnimals were dark-adapted overnight before the commencement of ERG experiments. Animals were anaesthetised as previously described, and all retinal recordings were undertaken in a dark room with minimal red light source.\nTerminal deoxynucleotidyl transferase (Tdt) dUTP nick end labelling (TUNEL) is an established technique used to detect apoptotic and necrotic cells.\nThe retina was evenly divided into 8 quadrants. Each quadrant was viewed using a confocal microscope (LSM 5, Zeiss, Germany) and TUNEL^+ and IBA1^+ cells were identified and counted. Data were graphed and analysed using Prism 6 software (GraphPad Software, CA, USA)."}, "[5]": {"conditions": "10-0.01 μg/μl, 12 h, compared to DMSO-only group"}, "[6]": {"conditions": "5 days PD, intravitreal, listed as Suspension+FA"}}, "note": "“Also recorded” adds a separate entry of the source."}
{"smiles": "CC(=O)OCC(=O)[C@@]1(O)CC[C@H]2[C@@H]3CCC4=CC(=O)CC[C@]4(C)[C@@]3(F)[C@@H](O)C[C@@]21C", "note": "[FA, 9-α-Fluoro-11 β. 17 α, 21-trihydroxy-4-pregnene-3, 20 dione acetate]", "values": [{"measurement": "viability of MIO-M1 cells at 1 μg/μl", "setting": "MIO-M1 cells; 1 μg/μl", "value": "does not significantly alter cell viability"}, {"measurement": "viability of MIO-M1 cells at the highest concentration", "setting": "MIO-M1 cells; 10 ug/uL, compared to DMSO-only group", "value": "slight reduction"}, {"measurement": "viability of MIO-M1 cells (MTT assay)", "setting": "MIO-M1 cells; [5]", "value": "do not induce toxicity; also recorded: no significant effect"}, {"measurement": "viability of 661W cells at 1 μg/μl", "setting": "661W cells; 1 μg/μl", "value": "does not significantly alter cell viability"}, {"measurement": "viability of 661W cells (MTT assay)", "setting": "661W cells; [5]", "value": "do not induce toxicity; also recorded: no significant effect"}, {"measurement": "Ccl2, Il-6, and Il-8 expression after IL-1β stimulation", "setting": "[1]", "value": "drastically reduced; also recorded: suppressed to near baseline levels"}, {"measurement": "Ccl2, Il-6, and Il-8 expression after TNF stimulation", "setting": "[2]", "value": "significantly reduced; also recorded: drastically reduced; also recorded: significantly inhibited"}, {"measurement": "receptor mediating the impact on expression of CCL2, IL-6 and IL-8", "setting": "[3]", "value": "mediated through the glucocorticoid receptor; also recorded: dependent on glucocorticoid receptor signalling"}, {"measurement": "ONL thickness (OCT)", "setting": "[4]; 5 days PD, intravitreal", "value": "significant preservation"}, {"measurement": "ONL thickness (OCT)", "setting": "[4]; [6]", "value": "significantly greater"}, {"measurement": "a-wave and b-wave ERG responses", "setting": "[4]; 5 days PD, intravitreal", "value": "significantly larger"}, {"measurement": "a-wave and b-wave ERG responses", "setting": "[4]; [6]", "value": "significantly higher"}, {"measurement": "IBA1+ macrophages in the outer retina", "setting": "[4]; 5 days PD, intravitreal", "value": "significant reduction"}, {"measurement": "IBA1+ macrophages in the outer retina", "setting": "[4]; [6]", "value": "significant decrease"}, {"measurement": "TUNEL+ photoreceptors (outer retina)", "setting": "[4]; 5 days PD, intravitreal, versus vehicle/controls", "value": "significantly fewer"}, {"measurement": "photoreceptor survival in PD", "setting": "[4]; intravitreal injection, mice", "value": "improves photoreceptor survival"}]}
